Consider 6 cell lines from the supplement of paper PMC10307832.

Common to all, as to assay: relative viability (nuclei count vs DMSO), 5 days (fraction); higher = more cells survive
Compound in the assay “EHT 1864 + OSI-027”: C1COCCN1CC2=CC(=O)C(=CO2)OCCCCCSC3=C4C=CC(=CC4=NC=C3)C(F)(F)F [EHT 1864] + COc1cccc2cc(-c3nc([C@H]4CC[C@H](C(=O)O)CC4)n4ncnc(N)c34)[nH]c12 [OSI-027] (partner 0.5 µM)
The method in brief:
(§1)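 Values are medians from duplicate plates. Each reflects relative viability, defined as the nuclei count of treated wells over that of vehicle wells. Lung cancer cell lines in 1536-well plates were pin-tool dosed one day after seeding with one drug alone or with a fixed anchor-drug dose plus five library-drug doses (not always all listed) in √10 steps, then fixed, stained and imaged at 4× after 5 days.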

Compound in the assay “EHT 1864 + Crizotinib”: C1COCCN1CC2=CC(=O)C(=CO2)OCCCCCSC3=C4C=CC(=CC4=NC=C3)C(F)(F)F [EHT 1864] + C[C@@H](Oc1cc(-c2cnn(C3CCNCC3)c2)cnc1N)c1c(Cl)ccc(F)c1Cl [Crizotinib] (partner 1 µM)
The method in brief:
as §1

Compound in the assay “EHT 1864 + Linsitinib”: C1COCCN1CC2=CC(=O)C(=CO2)OCCCCCSC3=C4C=CC(=CC4=NC=C3)C(F)(F)F [EHT 1864] + C[C@]1(O)C[C@@H](c2nc(-c3ccc4ccc(-c5ccccc5)nc4c3)c3c(N)nccn32)C1 [Linsitinib] (partner 1 µM)
The method in brief: as §1

Compound in the assay “EHT 1864 + Tozasertib”: C1COCCN1CC2=CC(=O)C(=CO2)OCCCCCSC3=C4C=CC(=CC4=NC=C3)C(F)(F)F [EHT 1864] + Cc1cc(Nc2cc(N3CCN(C)CC3)nc(Sc3ccc(NC(=O)C4CC4)cc3)n2)n[nH]1 [Tozasertib] (partner 0.1 µM)
In a few lines: as §1

On to NCI-H2347, for which the relative viability stood at 0.389 in the assay with EHT 1864 + OSI-027 (first compound 0.04 µM); 0.369 with EHT 1864 + OSI-027 (first compound 0.1265 µM); 0.442 with EHT 1864 + OSI-027 (first compound 0.4 µM); 0.396 with EHT 1864 + OSI-027 (first compound 4 µM); 0.693 with EHT 1864 + Crizotinib (first compound 0.04 µM); 0.518 in the assay with EHT 1864 + Crizotinib (first compound 0.1265 µM). Moreover, the relative viability amounted to 0.715 in the assay with EHT 1864 + Crizotinib (first compound 0.4 µM); 0.709 in the assay with EHT 1864 + Crizotinib (first compound 1.265 µM); 0.868 in the assay with EHT 1864 + Crizotinib (first compound 4 µM); 0.92 with EHT 1864 + Linsitinib (first compound 0.04 µM); 0.741 with EHT 1864 + Linsitinib (first compound 0.1265 µM); 0.95 in the assay with EHT 1864 + Linsitinib (first compound 0.4 µM). Also, the relative viability came out at 0.941 in the assay with EHT 1864 + Linsitinib (first compound 1.265 µM); 0.999 with EHT 1864 + Linsitinib (first compound 4 µM); 0.606 with EHT 1864 + Tozasertib (first compound 0.04 µM); 0.446 with EHT 1864 + Tozasertib (first compound 0.1265 µM); 0.501 with EHT 1864 + Tozasertib (first compound 0.4 µM); 0.562 with EHT 1864 + Tozasertib (first compound 4 µM).

In the case of NCI-H2126, the relative viability with EHT 1864 + OSI-027 (first compound 0.04 µM) was found to be 0.738; with EHT 1864 + OSI-027 (first compound 0.1265 µM), 0.667; with EHT 1864 + OSI-027 (first compound 0.4 µM), 0.729; in the assay with EHT 1864 + OSI-027 (first compound 1.265 µM) it was 0.74; with EHT 1864 + OSI-027 (first compound 4 µM), 0.725; with EHT 1864 + Crizotinib (first compound 0.04 µM) it was 1.01. The relative viability with EHT 1864 + Crizotinib (first compound 0.1265 µM) worked out at 0.938; in the assay with EHT 1864 + Crizotinib (first compound 0.4 µM), 0.998; with EHT 1864 + Crizotinib (first compound 1.265 µM), 0.992; with EHT 1864 + Crizotinib (first compound 4 µM), 0.988; in the assay with EHT 1864 + Linsitinib (first compound 0.04 µM), 0.733; with EHT 1864 + Linsitinib (first compound 0.1265 µM), 0.691. The relative viability in the assay with EHT 1864 + Linsitinib (first compound 0.4 µM) came to 0.746; in the assay with EHT 1864 + Linsitinib (first compound 1.265 µM), 0.726; in the assay with EHT 1864 + Linsitinib (first compound 4 µM), 0.72; with EHT 1864 + Tozasertib (first compound 0.04 µM), 0.839; in the assay with EHT 1864 + Tozasertib (first compound 0.1265 µM), 0.689; with EHT 1864 + Tozasertib (first compound 0.4 µM) it was 0.819. In addition, the results for the relative viability with EHT 1864 + Tozasertib (first compound 1.265 µM) and in the assay with EHT 1864 + Tozasertib (first compound 4 µM) were 0.8 and 0.81, respectively.

As to HCC-827, the relative viability with EHT 1864 + OSI-027 (first compound 0.04 µM) was 0.733; in the assay with EHT 1864 + OSI-027 (first compound 0.1265 µM) it was 0.646; with EHT 1864 + OSI-027 (first compound 0.4 µM) it was 0.732; with EHT 1864 + OSI-027 (first compound 1.265 µM), 0.7; with EHT 1864 + OSI-027 (first compound 4 µM) it was 0.657; in the assay with EHT 1864 + Crizotinib (first compound 0.04 µM), 0.963. Moreover, the relative viability with EHT 1864 + Crizotinib (first compound 0.1265 µM) is 0.759; in the assay with EHT 1864 + Crizotinib (first compound 0.4 µM) it was 0.931; in the assay with EHT 1864 + Crizotinib (first compound 1.265 µM) it was 0.844; with EHT 1864 + Crizotinib (first compound 4 µM), 0.921; with EHT 1864 + Linsitinib (first compound 0.04 µM), 0.953; with EHT 1864 + Linsitinib (first compound 0.1265 µM), 0.858. For the same cell line, the relative viability in the assay with EHT 1864 + Linsitinib (first compound 0.4 µM) was 1.01; in the assay with EHT 1864 + Linsitinib (first compound 1.265 µM), 0.926; with EHT 1864 + Linsitinib (first compound 4 µM), 0.876; with EHT 1864 + Tozasertib (first compound 0.04 µM), 0.415; in the assay with EHT 1864 + Tozasertib (first compound 0.1265 µM), 0.348; in the assay with EHT 1864 + Tozasertib (first compound 0.4 µM), 0.408. Also, the figures for the relative viability with EHT 1864 + Tozasertib (first compound 1.265 µM) and with EHT 1864 + Tozasertib (first compound 4 µM) were 0.449 and 0.4, respectively.

Regarding NCI-H3122, the relative viability with EHT 1864 + OSI-027 (first compound 0.04 µM) was found to be 0.922; with EHT 1864 + OSI-027 (first compound 0.1265 µM) it was 0.594; in the assay with EHT 1864 + OSI-027 (first compound 0.4 µM), 0.952; with EHT 1864 + OSI-027 (first compound 1.265 µM) it was 0.896; in the assay with EHT 1864 + OSI-027 (first compound 4 µM), 0.956; in the assay with EHT 1864 + Crizotinib (first compound 0.04 µM), 0.327. The relative viability was 0.278 with EHT 1864 + Crizotinib (first compound 0.1265 µM); 0.276 with EHT 1864 + Crizotinib (first compound 0.4 µM); 0.315 in the assay with EHT 1864 + Crizotinib (first compound 1.265 µM); 0.245 with EHT 1864 + Crizotinib (first compound 4 µM); 1.03 with EHT 1864 + Linsitinib (first compound 0.04 µM); 0.977 with EHT 1864 + Linsitinib (first compound 0.1265 µM). Also, the relative viability in the assay with EHT 1864 + Linsitinib (first compound 0.4 µM) is 0.932; with EHT 1864 + Linsitinib (first compound 1.265 µM), 1.02; with EHT 1864 + Linsitinib (first compound 4 µM), 0.965; with EHT 1864 + Tozasertib (first compound 0.04 µM), 0.358; in the assay with EHT 1864 + Tozasertib (first compound 0.1265 µM) it was 0.275; in the assay with EHT 1864 + Tozasertib (first compound 0.4 µM), 0.398. For the same cell line, the relative viability with EHT 1864 + Tozasertib (first compound 1.265 µM) was found to be 0.398; with EHT 1864 + Tozasertib (first compound 4 µM), 0.392.

As to HOP-62, the relative viability with EHT 1864 + OSI-027 (first compound 0.04 µM) was determined as 0.783; with EHT 1864 + OSI-027 (first compound 0.4 µM), 0.851; in the assay with EHT 1864 + OSI-027 (first compound 1.265 µM), 0.825; with EHT 1864 + OSI-027 (first compound 4 µM), 0.907; in the assay with EHT 1864 + Crizotinib (first compound 0.04 µM), 0.944; in the assay with EHT 1864 + Crizotinib (first compound 0.4 µM) it was 0.952. Also, the relative viability was 0.784 with EHT 1864 + Crizotinib (first compound 1.265 µM); 0.996 in the assay with EHT 1864 + Crizotinib (first compound 4 µM); 1.13 with EHT 1864 + Linsitinib (first compound 0.04 µM); 0.865 in the assay with EHT 1864 + Linsitinib (first compound 0.4 µM); 0.943 with EHT 1864 + Linsitinib (first compound 1.265 µM); 1.03 with EHT 1864 + Linsitinib (first compound 4 µM). Moreover, the relative viability amounted to 0.391 with EHT 1864 + Tozasertib (first compound 0.04 µM), 0.376 in the assay with EHT 1864 + Tozasertib (first compound 0.4 µM), 0.333 in the assay with EHT 1864 + Tozasertib (first compound 1.265 µM) and 0.374 in the assay with EHT 1864 + Tozasertib (first compound 4 µM).

For HCC-44, the relative viability in the assay with EHT 1864 + OSI-027 (first compound 0.04 µM) worked out at 0.573; with EHT 1864 + OSI-027 (first compound 0.1265 µM) it was 0.383; in the assay with EHT 1864 + OSI-027 (first compound 0.4 µM) it was 0.525; in the assay with EHT 1864 + OSI-027 (first compound 1.265 µM), 0.522; with EHT 1864 + OSI-027 (first compound 4 µM), 0.575; in the assay with EHT 1864 + Crizotinib (first compound 0.04 µM), 0.799. The relative viability in the assay with EHT 1864 + Crizotinib (first compound 0.1265 µM) is 0.751; in the assay with EHT 1864 + Crizotinib (first compound 0.4 µM), 0.693; with EHT 1864 + Crizotinib (first compound 1.265 µM), 0.653; with EHT 1864 + Crizotinib (first compound 4 µM), 0.858; with EHT 1864 + Linsitinib (first compound 0.04 µM), 0.692; with EHT 1864 + Linsitinib (first compound 0.1265 µM), 0.58. Moreover, the relative viability turned out to be 0.598 with EHT 1864 + Linsitinib (first compound 0.4 µM); 0.642 in the assay with EHT 1864 + Linsitinib (first compound 1.265 µM); 0.621 with EHT 1864 + Linsitinib (first compound 4 µM); 0.919 with EHT 1864 + Tozasertib (first compound 0.04 µM); 0.827 with EHT 1864 + Tozasertib (first compound 0.1265 µM); 0.878 in the assay with EHT 1864 + Tozasertib (first compound 0.4 µM). Besides, the relative viability came to 0.771 with EHT 1864 + Tozasertib (first compound 1.265 µM) and 0.926 with EHT 1864 + Tozasertib (first compound 4 µM).
